Data published in patent EP0326331B1, “Substituted quinolines and cinnolines” (Dow AgroSciences LLC, priority 1988, dated 1989).

Tests used:
Format in all cases: in vivo
corn rootworm = test: Mite/insect screen, CRW; settings: percent mortality, read-out: CRW RESULTS %; for mortality at 12 ppm: CRW RATE 12.00 PPM; for mortality at 24 ppm: CRW RATE 24.00 PPM
Method in brief: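 Each compound, taken up in an emulsifier-containing acetone/alcohol mixture and diluted in water to the stated concentrations, was assessed for percent kill following standard exposure times.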

[1] = tested on: Pyricularia oryzae (rice blast); test: whole plant or invertebrate; settings: disease control rating, foliar spray on rice, 400 ppm (+++ at 100 ppm)
[2] = tested on: Septoria tritici (leaf blotch); test: Test 1 greenhouse foliar spray screen, leaf blotch on wheat; settings: disease control rating, foliar spray on wheat, 400 ppm (+++ at 100 ppm)
[3] = tested on: Puccinia recondita tritici (leaf rust); test: Test 1 greenhouse foliar spray screen, leaf rust on wheat; settings: disease control rating, foliar spray on wheat, 400 ppm (+++ at 100 ppm)
[4] = tested on: Twospotted spider mites (Tetranychus urticae Koch); test: Mite/insect screen, SM; settings: Tetranychus urticae, percent mortality, SAW, read-out: SM RESULTS %; for mortality at 200 ppm: SM & MA RATE 200 PPM; for mortality at 400 ppm: SM & MA RATE 400 PPM
Method in brief: (§1)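 Activity is expressed as percent mortality at the indicated spray concentrations. Plants are sprayed to runoff on upper and lower leaf surfaces with aqueous dilutions of an acetone/alcohol emulsifiable formulation, then dried for one hour.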

[5] = tested on: Cercospora beticola (leaf spot); test: Test 1 greenhouse foliar spray screen, leaf spot on sugar beet; settings: disease control rating, foliar spray on sugar beet, 400 ppm (+++ at 100 ppm)
[6] = tested on: Erysiphe graminis tritici (powdery mildew); test: Test 1 greenhouse foliar spray screen, powdery mildew on wheat; settings: disease control rating, foliar spray on wheat, 400 ppm (+++ at 100 ppm)
[7] = tested on: southern armyworm (Spodopetra eridania Cramer); test: Mite/insect screen, SAW; settings: Spodoptera eridania, percent mortality, SAW, read-out: SAW RESULTS %; for mortality at 200 ppm: SM & MA RATE 200 PPM; for mortality at 400 ppm: SM & MA RATE 400 PPM
Method in brief: as §1

[8] = tested on: melon aphids (Aphis gossypii Glover); test: Mite/insect screen, MA; settings: Aphis gossypii, percent mortality, SAW, read-out: MA RESULTS %; for mortality at 200 ppm: SM & MA RATE 200 PPM; for mortality at 400 ppm: SM & MA RATE 400 PPM
Method in brief: as §1

[9] = tested on: Pseudoperonospora cubensis (downy mildew); test: Test 1 greenhouse foliar spray screen, downy mildew on squash; settings: disease control rating, foliar spray on squash, 400 ppm (+++ at 100 ppm)
[10] = tested on: Botrytis cinerea (gray mold); test: Test 1 greenhouse foliar spray screen, gray mold on grape berries; settings: disease control rating, spray on grape berries, 400 ppm (+++ at 100 ppm)
[11] = tested on: Venturia inaequalis (apple scab); test: Test 1 greenhouse foliar spray screen, apple scab on apple seedling; settings: disease control rating, foliar spray on apple seedling, 400 ppm (+++ at 100 ppm)

Row | Compound | mortality at 12 ppm (corn rootworm) [%] | mortality at 24 ppm (corn rootworm) [%] | RICE BLAST [1] | LEAF BLOT [2] | LEAF RUST [3] | mortality at 200 ppm [4] [%] | mortality at 400 ppm [4] [%] | LEAF SPOT [5] | POWD MDEW [6] | mortality at 200 ppm [7] [%] | mortality at 400 ppm [7] [%] | mortality at 200 ppm [8] [%] | mortality at 400 ppm [8] [%] | DOWN MDEW [9] | GRAY MOLD [10] | APPL SCAB [11]
1 | Fc1cccc2c(NCCCc3ccc(Cl)cc3)ccnc12 [Example 135, N-[3-(4-chlorophenyl)propyl]-8-fluoro-4-quinolinamine] | 0 | 0 | - (0-19% control at 400 ppm) | + (20-89% control at 400 ppm) | - (0-19% control at 400 ppm) | 0 | 0 | - (0-19% control at 400 ppm) | - (0-19% control at 400 ppm) | 0 | 0 | 0 | 0 | +++ (90-100% control at 100 ppm) | - (0-19% control at 400 ppm) | - (0-19% control at 400 ppm)
2 | Clc1ccc(CCCNc2ccnc3cc(Cl)ccc23)cc1 [Example 136, N-[3-(4-chlorophenyl)propyl]-7-chloro-4-quinolinamine] | 0 | 0 | - (0-19% control at 400 ppm) | - (0-19% control at 400 ppm) | - (0-19% control at 400 ppm) | 0 | 0 | - (0-19% control at 400 ppm) | + (20-89% control at 400 ppm) | 0 | 0 | 0 | 0 | +++ (90-100% control at 100 ppm) | - (0-19% control at 400 ppm) | - (0-19% control at 400 ppm)
3 | c1ccc(CCCNc2ccnc3ccccc23)cc1 [Example 139, N-(3-phenylpropyl)-4-quinolinamine] | 0 | – | + (20-89% control at 400 ppm) | - (0-19% control at 400 ppm) | + (20-89% control at 400 ppm) | 0 | – | - (0-19% control at 400 ppm) | + (20-89% control at 400 ppm) | 0 | – | 0 | – | ++ (90-100% control at 400 ppm) | - (0-19% control at 400 ppm) | - (0-19% control at 400 ppm)
4 | Fc1cccc2c(NCCCCc3ccc(Cl)cc3)ccnc12 [Example 140, 8-fluoro-N-[4-(4-chlorophenyl)butyl]-4-quinolinamine] | 0 | 0 | +++ (90-100% control at 100 ppm) | +++ (90-100% control at 100 ppm) | +++ (90-100% control at 100 ppm) | 0 | 0 | +++ (90-100% control at 100 ppm) | + (20-89% control at 400 ppm) | 0 | 60 | 0 | 0 | +++ (90-100% control at 100 ppm) | - (0-19% control at 400 ppm) | + (20-89% control at 400 ppm)
5 | Fc1cccc2c(NCCC3=CCCCC3)ccnc12 [Example 143, N-[2-(1-cyclohexenyl)ethyl]-8-fluoro-4-quinolinamine] | 0 | 0 | ++ (90-100% control at 400 ppm) | + (20-89% control at 400 ppm) | +++ (90-100% control at 100 ppm) | 0 | 0 | + (20-89% control at 400 ppm) | ++ (90-100% control at 400 ppm) | 0 | 0 | 0 | 0 | +++ (90-100% control at 100 ppm) | - (0-19% control at 400 ppm) | - (0-19% control at 400 ppm)
6 | Cc1cc(C)c2nccc(NCCC3=CCCCC3)c2c1 [Example 144, N-[2-(1-cyclohexenyl)ethyl]-6,8-dimethyl-4-quinolinamine] | 0 | 0 | + (20-89% control at 400 ppm) | - (0-19% control at 400 ppm) | ++ (90-100% control at 400 ppm) | 0 | 0 | + (20-89% control at 400 ppm) | - (0-19% control at 400 ppm) | 0 | 0 | 0 | 0 | +++ (90-100% control at 100 ppm) | - (0-19% control at 400 ppm) | + (20-89% control at 400 ppm)
7 | CCc1ccc2nccc(NCCC3=CCCCC3)c2c1 [Example 145, N-[2-(1-cyclohexenyl)ethyl]-6-ethyl-4-quinolinamine] | 0 | 0 | + (20-89% control at 400 ppm) | - (0-19% control at 400 ppm) | + (20-89% control at 400 ppm) | 0 | 0 | + (20-89% control at 400 ppm) | - (0-19% control at 400 ppm) | 0 | 0 | 0 | 0 | +++ (90-100% control at 100 ppm) | - (0-19% control at 400 ppm) | - (0-19% control at 400 ppm)
8 | c1csc(CCNc2ccnc3ccccc23)c1 [Example 147, N-[2-(2-thienyl)ethyl]-4-quinolinamine] | 0 | – | + (20-89% control at 400 ppm) | - (0-19% control at 400 ppm) | + (20-89% control at 400 ppm) | 0 | – | - (0-19% control at 400 ppm) | - (0-19% control at 400 ppm) | 0 | – | 0 | – | +++ (90-100% control at 100 ppm) | - (0-19% control at 400 ppm) | - (0-19% control at 400 ppm)
9 | c1ccc2c(NCCc3ccsc3)ccnc2c1 [Example 148, N-[2-(3-thienyl)ethyl]-4-quinolinamine] | 0 | – | + (20-89% control at 400 ppm) | - (0-19% control at 400 ppm) | + (20-89% control at 400 ppm) | 0 | – | + (20-89% control at 400 ppm) | - (0-19% control at 400 ppm) | 0 | – | 0 | – | ++ (90-100% control at 400 ppm) | - (0-19% control at 400 ppm) | - (0-19% control at 400 ppm)
